Values belong to the molecule of their own block, whether it stands above or below them.
Assays:
NCI-H460 = details: read-out: IC50 NCI-H460; cited from earlier work
[1] = tested on: SUIT2, MIA PaCa-2 and MDA-MB-231 cell lines; experiment: cells; assay type: cell-based; details: read-out: IC50 values (range)
HCT-15 = details: read-out: IC50 HCT-15; cited from earlier work
MIA PaCa-2/GemLuc cells = assay type: cell-based
[2] = tested on: patient-derived PDAC organoids; assay type: cell-based, human
[3] = tested on: MCF-7 breast cancer cells; experiment: cells; assay type: cell-based; details: Homo sapiens, MCF7, 72 h, read-out: IC50 against MCF-7 breast cancer cells

IC50 [1]: 2.4 to 8.7 nM
Compound: COc1ccc(/C=C\c2cc(OC)c(OC)c(OC)c2)cc1O [CA-4, combretastatin A4]
IC50 (NCI-H460): 3 nM | IC50 (HCT-15): 1.7 nM

Compound: Cc1cc2cc(O)ccc2[nH]1 [Compound L01, 2-Methyl-1H-indol-5-ol]
cell cycle arrest (red S/G2/M bioluminescence) (MIA PaCa-2/GemLuc cells): failed to elicit the same effect | antiproliferative activity against patient-derived PDAC organoids [2]: no antiproliferative activity

IC50 [3]: > 200000 nM
Compound: C[C@]12CC[C@@H]3c4ccc(O)cc4CC[C@H]3[C@@H]1CCC2=O [estrone (5), Estrone]
